The text below walks through data of ChEMBL document CHEMBL1208727, “Synthesis and pharmacological evaluation of aryl aminosulfonamide derivatives as potent 5-HT(6) receptor antagonists” (Bioorg Med Chem Lett, 2010).

Structures are written as SMILES. Calls of active or inactive are those of the source. The rule behind the calls is not given here. Some results are limits rather than exact numbers.

For orientation: IC50 means the concentration that inhibits the measured activity by half. The term CL/F denotes the apparent clearance, not corrected for the fraction that reaches the circulation. Usually Cmax stands for the peak of the concentration-time curve. For orientation: half-life means the time in which the quantity being followed falls by half. Low readings indicate fast loss, high ones slow loss. As usually defined, the clearance is a measure of how efficiently the substance is removed, as volume per time. By bioavailability is commonly meant dose-corrected exposure relative to a reference, in per cent. A high value points to good availability. As usually defined, the AUC(0-t) is the area under the concentration-time curve up to a stated or last time point. A lower AUC(0-t) goes with low exposure. In general, Kp refers to the ratio of the level in a tissue or fluid to that in plasma or blood. By Ki is commonly meant the dissociation constant of the complex between target and ligand, obtained from inhibition or displacement.

Series [1] addresses 5-hydroxytryptamine receptor 6 (Homo sapiens, UniProt P50406). As to the kind of experiment: Binding affinity to human recombinant 5HT6 receptor expressed in CHO cells coexpressing pCRE-Luc assessed as inhibition of serotonin-induced increase in cAMP level by luciferase reporter gene assay. It is filed as cell-based. In general terms: cAMP levels reflect the balance of adenylyl cyclase and phosphodiesterase activity.

Series [2] can be described thus: Metabolic stability in human liver microsomes at […] after 30 mins. The class given is ADME, Microsome. To be noted: read-out: Stability.
Series [3] has as its target Cytochrome P450 3A4 (Homo sapiens, UniProt P08684). The series can be described thus: Inhibition of human CY3A4.
The target in series [4] is Cytochrome P450 2D6 (Homo sapiens, UniProt P10635). As to the kind of experiment: Inhibition of human CY2D6.
The nature of series [5]: Metabolic stability in Wistar rat liver microsomes at […] after 30 mins. The class given is ADME, Microsome. As to conditions: read-out: Stability. (Microsomes from liver hold many membrane-bound enzymes, among them those of drug oxidation.)
A short description of series [6]: Clearance in Wistar rat at 10 mg/kg, po. It is filed as ADME, organism-based. Set-up: dose 10 mg/kg, route oral. As to conditions: in vivo.
Series [7] in a line: Cmax in Wistar rat at 10 mg/kg, po. It is filed as ADME, organism-based. Also on record: dose 10 mg/kg, route oral. As to conditions: in vivo.
Series [8] is described as follows: Apparent volume of distribution in Wistar rat at 10 mg/kg, iv. It is filed as ADME, organism-based. Set-up: dose 10 mg/kg, route intravenous. To be noted: in vivo, read-out: Vz.
Series [9] can be described thus: Half life in Wistar rat at 10 mg/kg, po. It is filed as ADME, organism-based. Also on record: dose 10 mg/kg, route oral. As to conditions: in vivo.
Series [10] is described as follows: Clearance in Wistar rat at 10 mg/kg, iv. It is filed as ADME, organism-based. Also on record: dose 10 mg/kg, route intravenous. As to conditions: in vivo.
Series [11] concerns Rattus norvegicus. As to the kind of experiment: Cognitive enhancing effect in Wistar rat at 10 mg/kg, po by novel object recognition test. It is filed as functional, organism-based. Also on record: dose 10 mg/kg.
For series [12], the species on record is Rattus norvegicus. As to the kind of experiment: Cognitive enhancing effect against scopolamine-induced acquisition memory deficit in Wistar rat by morris water maze test. The class given is functional, organism-based.
The nature of series [13]: Oral bioavailability in Wistar rat at 10 mg/kg. The class given is ADME, organism-based. To be noted: in vivo.
The nature of series [14]: AUCt in Wistar rat at 10 mg/kg, iv. The class given is ADME, organism-based. Also on record: dose 10 mg/kg, route intravenous. To be noted: plasma.
Series [15] in a line: Half life in Wistar rat at 10 mg/kg, iv. It is filed as ADME, organism-based. Also on record: dose 10 mg/kg, route intravenous. To be noted: in vivo.
Series [16] in a line: AUCt in Wistar rat at 10 mg/kg, po. It is filed as ADME, organism-based. Also on record: dose 10 mg/kg, route oral. To be noted: plasma.
Series [17] in a line: Ratio of drug level brain to plasma in Wistar rat. The class given is ADME.
Series [18] is described as follows: Cmax in Wistar rat at 10 mg/kg, iv. The class given is ADME, organism-based. Also on record: dose 10 mg/kg, route intravenous. To be noted: in vivo.
In series [19] the test system is Rattus norvegicus. The series can be described thus: Apparent volume of distribution in Wistar rat at 10 mg/kg, po. Set-up: dose 10 mg/kg, route oral. To be noted: in vivo. It is filed as ADME, organism-based.

Chain of 5-hydroxytryptamine receptor 6 (P50406 whole entry): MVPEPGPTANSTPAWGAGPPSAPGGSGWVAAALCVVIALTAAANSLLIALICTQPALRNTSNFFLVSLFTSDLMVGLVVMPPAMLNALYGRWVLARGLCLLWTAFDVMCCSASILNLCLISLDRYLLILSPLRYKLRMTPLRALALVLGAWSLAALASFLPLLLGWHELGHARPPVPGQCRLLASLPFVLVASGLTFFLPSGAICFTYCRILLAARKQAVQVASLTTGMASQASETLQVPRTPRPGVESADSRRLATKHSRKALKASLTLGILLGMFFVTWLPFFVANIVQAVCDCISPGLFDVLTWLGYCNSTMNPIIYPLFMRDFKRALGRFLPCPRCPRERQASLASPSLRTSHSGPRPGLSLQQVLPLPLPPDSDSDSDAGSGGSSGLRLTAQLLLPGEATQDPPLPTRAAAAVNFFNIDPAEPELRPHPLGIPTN
Chain of Cytochrome P450 3A4 (P08684 whole entry): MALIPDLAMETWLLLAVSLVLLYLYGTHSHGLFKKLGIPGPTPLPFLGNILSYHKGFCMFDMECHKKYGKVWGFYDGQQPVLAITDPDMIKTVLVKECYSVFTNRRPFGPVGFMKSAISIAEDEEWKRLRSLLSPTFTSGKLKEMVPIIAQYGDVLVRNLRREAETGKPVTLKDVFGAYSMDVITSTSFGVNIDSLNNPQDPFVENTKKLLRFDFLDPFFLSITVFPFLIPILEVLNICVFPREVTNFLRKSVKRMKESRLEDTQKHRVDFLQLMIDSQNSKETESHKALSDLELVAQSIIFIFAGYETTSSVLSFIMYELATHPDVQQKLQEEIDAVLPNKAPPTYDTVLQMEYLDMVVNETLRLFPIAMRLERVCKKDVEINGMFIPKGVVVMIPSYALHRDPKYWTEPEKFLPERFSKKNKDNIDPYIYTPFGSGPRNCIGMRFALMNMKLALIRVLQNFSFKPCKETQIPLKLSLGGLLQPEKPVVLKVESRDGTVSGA
Chain of Cytochrome P450 2D6 (P10635 whole entry): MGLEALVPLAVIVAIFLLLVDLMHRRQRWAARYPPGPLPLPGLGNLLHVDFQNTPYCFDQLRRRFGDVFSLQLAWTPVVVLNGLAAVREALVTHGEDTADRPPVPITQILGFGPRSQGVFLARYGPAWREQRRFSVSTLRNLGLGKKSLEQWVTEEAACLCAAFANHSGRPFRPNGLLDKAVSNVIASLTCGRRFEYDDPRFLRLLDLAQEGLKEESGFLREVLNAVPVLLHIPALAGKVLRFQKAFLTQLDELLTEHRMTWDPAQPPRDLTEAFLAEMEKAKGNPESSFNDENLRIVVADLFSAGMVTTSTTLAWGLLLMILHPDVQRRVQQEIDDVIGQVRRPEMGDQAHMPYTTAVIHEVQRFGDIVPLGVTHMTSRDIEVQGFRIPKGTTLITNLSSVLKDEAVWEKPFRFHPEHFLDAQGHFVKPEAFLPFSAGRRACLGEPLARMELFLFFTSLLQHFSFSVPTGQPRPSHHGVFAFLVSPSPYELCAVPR

Take `COc1ccc(S(=O)(=O)NCc2ccccc2)cc1N(C)C1CCN(C)CC1`: the Kb in series [1] is 3.9 nM.
As to `COc1ccc(NS(=O)(=O)c2cccc(NC3CCN(C)CC3)c2)c(OC)c1`, the Kb in series [1] turned out to be 10 nM.
In the case of `COc1ccc(S(=O)(=O)Nc2cc(C)ccc2OC)cc1NC1CCN(C)CC1`, the Kb in series [1] was determined as 0.02 nM.
On the same count and under the same terms, as for `COc1ccc(S(=O)(=O)Nc2ccccc2Br)cc1N(C)C1CCNCC1`, the figure is 0.2 nM; as for `COc1ccc(S(=O)(=O)Nc2ccccc2Cl)cc1N(C)C1CCNCC1`, 0.86 nM.
Take `COc1ccc(S(=O)(=O)NCc2ccccc2)cc1NC1CCN(C)CC1`: the Kb in series [1] amounted to 3.36 nM.
`COc1ccc(S(=O)(=O)NCc2ccccc2)cc1NC1CCNCC1`: in series [1], the Kb came to 4.26 nM.
On the same count and under the same terms, as for `COc1ccc(OC)c(NS(=O)(=O)c2cccc(NC3CCN(C)CC3)c2)c1`, the figure is 16 nM; as for `CCc1ccc(S(=O)(=O)Nc2ccccc2Br)cc1NC1CCNCC1`, 0.1 nM.
For `CN1CCC(Nc2cccc(S(=O)(=O)Nc3ccc(Br)cc3F)c2)CC1`, in series [1], the Kb stood at 12.2 nM.
As for `CCc1ccc(S(=O)(=O)Nc2ccccc2Br)cc1NC1CCN(C)CC1`, the results for the remaining at 0.5 h, […] in series [2] and in series [5] were 26% and 99%, respectively. For the same compound, the IC50 in series [3] was 9620 nM; in [4], over 45000 nM. Besides, in series [1], the Kb turned out to be 0.19 nM.
`COc1ccc(S(=O)(=O)Nc2cc(Cl)cc(Cl)c2OC)cc1NC1CCN(C)CC1`: the CL/F in series [6] was 207 mL/min/kg. Besides, the Cmax in [7] was determined as 536 ng/mL; in series [18] it was 1920 ng/mL. Besides, the Vd in [8] is 16.9 L/kg. Moreover, the half-life was 1.72 h in [9] and 2.96 h in series [15]. The clearance in series [10] is 65.5 mL/min/kg. The remaining at 0.5 h, […] in series [2] is 21%; in series [5], 77%. For the same compound, the result in series [11] and in [12] was Active. This compound came in with a bioavailability in series [13] of 38%. In addition, the values for the IC50 in series [3] and in [4] were 8440 nM and 41700 nM, respectively. Besides, the Kb in series [1] came to 0.02 nM. In addition, the AUC(0-t) in [14] was 2530 ng·h/mL; in [16], 941 ng·h/mL. Further, the partition ratio (Kp) in [17] was found to be 0.08. Also, the Vz in [19] was 34.332 L/kg.
On to `COc1ccc(S(=O)(=O)Nc2ccccc2Cl)cc1NC1CCN(C)CC1`, for which the Kb in series [1] worked out at 0.584 nM.
Still for that read-out and setting: as for `COc1ccc(S(=O)(=O)NCCc2ccccc2Br)cc1NC1CCN(C)CC1`, the figure is 38 nM; as for `COc1ccc(S(=O)(=O)Nc2ccccc2Cl)cc1NC1CCNCC1`, 0.48 nM.
With `COc1ccc(S(=O)(=O)NCc2ccccc2)cc1N(C)C1CCNCC1`, in [1], the Kb stood at 2.65 nM.
Regarding `CCN(c1cc(S(=O)(=O)Nc2ccccc2)ccc1OC)C1CCN(C)CC1`, the Kb in [1] is 18.6 nM.
As for `COc1ccc(S(=O)(=O)NCCc2ccccc2Cl)cc1NC1CCN(C)CC1`, the Kb in [1] amounted to 26 nM.
As to `Cc1ccc(S(=O)(=O)Nc2ccccc2Br)cc1NC1CCN(C)CC1`, in series [1], the Kb was found to be 1.31 nM.
For the compound `Cc1ccc(NS(=O)(=O)c2cccc(NC3CCN(C)CC3)c2)c(C)c1`, the Kb in series [1] is over 10000 nM.
The same measure, in the same setting: as for `COc1ccc(S(=O)(=O)Nc2ccccc2Br)cc1NC1CCN(C)CC1`, the figure is 0.296 nM.
On to `COc1ccc(NS(=O)(=O)c2ccccc2OC(F)F)cc1N1CCNCC1`, for which, in series [1], the Ki was under 10 nM.
As for `CN1CCC(Nc2cccc(S(=O)(=O)Nc3c(F)cc(F)cc3Br)c2)CC1`, in series [1], the Kb is over 10000 nM.
Regarding `COc1ccc(S(=O)(=O)Nc2ccccc2Br)cc1NC1CCNCC1`, in [1], the Kb was 0.6 nM.
For the compound `CCc1ccc(S(=O)(=O)Nc2cc(Cl)cc(Cl)c2OC)cc1NC1CCN(C)CC1`, in [1], the Kb turned out to be 1.65 nM.
Regarding `COc1ccc(S(=O)(=O)Nc2ccccc2)cc1NC1CCN(C)CC1`, in series [1], the Kb stood at 1.23 nM.
